# Tests used:
# [1] = tested on: pest eggs of Tetranychus cinnabarinus; assay: Effect on hatching of pest eggs of Tetranychus cinnabarinus, leaf disc method; assay type: in vivo; conditions: for Hatching rate (%): 7 days after insecticide delivery; for inhibitory effect on the hatching of pest eggs of Tetranychus cinnabarinus (in words): 1 ppm
# How it was run: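 Adult female mites laid eggs on 2.0 cm Vicia faba leaf discs for up to 36 h; discs with counted eggs were dipped 10 s in compound solution or water, then kept moist. Hatched eggs were counted 7 days after treatment and control effect was calculated by formula.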
# [2] = tested on: eggs of Harmonia axyridis; assay: Effect on hatching of eggs of Harmonia axyridis, egg card immersion; assay type: in vivo; conditions: 100 ppm; for Number of hatched larvae 4 days after insecticide delivery, Replicate 1 / Number of hatched larvae 4 days after insecticide delivery, Replicate 2 / Number of hatched larvae 4 days after insecticide delivery, Replicate 3: Harmonia axyridis egg cards, immersed 30 seconds; for Hatching rate (%), Replicate 1 / Hatching rate (%), Replicate 2 / Hatching rate (%), Replicate 3: Harmonia axyridis eggs, 4 days after delivery
# How it was run: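 Egg cards (~20 eggs each) dipped 30 s in 100 ppm insecticide, air dried and kept moist at 27° C; 5 cards per treatment, 3 replicates. Hatching assessed 4 days after treatment against pre-treatment egg counts, and control effect calculated by formula.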
# [3] = tested on: eggs of Panonychus citri; assay: Effect on hatching of eggs of Panonychus citri, leaf disc method; assay type: in vivo; conditions: 1 ppm; for Hatching rate (%), Replicate 1 / Hatching rate (%), Replicate 2 / Hatching rate (%), Replicate 3 / Number of hatched larvae 5 days after insecticide delivery, Replicate 1 / Number of hatched larvae 5 days after insecticide delivery, Replicate 2 / Number of hatched larvae 5 days after insecticide delivery, Replicate 3: Panonychus citri eggs; for Hatching rate (%), Replicate 1 / Hatching rate (%), Replicate 2 / Hatching rate (%), Replicate 3: 5 days after delivery; for Number of hatched larvae 5 days after insecticide delivery, Replicate 1 / Number of hatched larvae 5 days after insecticide delivery, Replicate 2 / Number of hatched larvae 5 days after insecticide delivery, Replicate 3: leaf disc
# [4] = tested on: Magnaporthe grisea; assay type: cell-based; conditions: 100 ppm; for Average antifungal rate (%) / Antifungal rate of Magnaporthe grisea (%), Replicate 1 / Antifungal rate of Magnaporthe grisea (%), Replicate 2 / Antifungal rate of Magnaporthe grisea (%), Replicate 3: 96-well plate; for Average antifungal rate (%): average of 3 replicates
SMILES,"Hatching rate (%) ([1]; 0.25 mg/L, Replicate 1)","Hatching rate (%) ([1]; 0.25 mg/L, Replicate 2)","Number of hatched larvae 7 days after insecticide delivery ([1]; 0.25 mg/L, Replicate 1)","Number of hatched larvae 7 days after insecticide delivery ([1]; 0.25 mg/L, Replicate 2)","Hatching rate (%) ([1]; 0.5 mg/L, Replicate 1)","Hatching rate (%) ([1]; 0.5 mg/L, Replicate 2)","Number of hatched larvae 7 days after insecticide delivery ([1]; 0.5 mg/L, Replicate 1)","Number of hatched larvae 7 days after insecticide delivery ([1]; 0.5 mg/L, Replicate 2)","Hatching rate (%) ([1]; 1 mg/L, Replicate 1)","Hatching rate (%) ([1]; 1 mg/L, Replicate 2)","Number of hatched larvae 7 days after insecticide delivery ([1]; 1 mg/L, Replicate 1)","Number of hatched larvae 7 days after insecticide delivery ([1]; 1 mg/L, Replicate 2)",inhibitory effect on the hatching of pest eggs of Tetranychus cinnabarinus (in words) [1],inhibitory activity on the hatching of eggs of Harmonia axyridis (in words) [2],"Number of hatched larvae 4 days after insecticide delivery, Replicate 1 [2]",inhibitory rate against Magnaporthe grisea (in words) [4],Average antifungal rate (%) [4] [%],"Antifungal rate of Magnaporthe grisea (%), Replicate 1 [4] [%]","Antifungal rate of Magnaporthe grisea (%), Replicate 2 [4] [%]","Antifungal rate of Magnaporthe grisea (%), Replicate 3 [4] [%]",further results
CC(C)(COS(=O)OCCF)Oc1ccc(Cl)cc1Cl (centres unmarked) [S-10′],42.11,43.77,44,37,7.95,6.12,81,46,0.00,0.00,59,84,excellent inhibitory effects,strong inhibitory activities,0,strong inhibitory rate,99.31,100.03,99.64,98.27,"Number of hatched larvae 4 days after insecticide delivery, Replicate 2 [2]: 0; Number of hatched larvae 4 days after insecticide delivery, Replicate 3 [2]: 0; Hatching rate (%), Replicate 1 [2]: 0.00%; Hatching rate (%), Replicate 2 [2]: 0.00%; Hatching rate (%), Replicate 3 [2]: 0.00%; inhibitory effect on the hatching of eggs of Panonychus citri (in words) [3]: good inhibitory effects; Hatching rate (%), Replicate 1 [3]: 0.00%; Hatching rate (%), Replicate 2 [3]: 0.00%; Hatching rate (%), Replicate 3 [3]: 0.00%; Number of hatched larvae 5 days after insecticide delivery, Replicate 1 [3]: 0; Number of hatched larvae 5 days after insecticide delivery, Replicate 2 [3]: 0; Number of hatched larvae 5 days after insecticide delivery, Replicate 3 [3]: 0"
CC(C)(COc1ccc(Cl)cc1Cl)OS(=O)OCCF (centres unmarked) [Compound R-10],73.21,74.03,15,20,42.67,41.94,28,36,8.11,6.25,68,60,,,15,strong inhibitory rate,82.52,81.97,83.68,81.92,"Number of hatched larvae 4 days after insecticide delivery, Replicate 2 [2]: 10; Number of hatched larvae 4 days after insecticide delivery, Replicate 3 [2]: 13; Hatching rate (%), Replicate 1 [2]: 12.00%; Hatching rate (%), Replicate 2 [2]: 11.90%; Hatching rate (%), Replicate 3 [2]: 12.87%; Hatching rate (%), Replicate 1 [3]: 9.65%; Hatching rate (%), Replicate 2 [3]: 9.78%; Hatching rate (%), Replicate 3 [3]: 10.37%; Number of hatched larvae 5 days after insecticide delivery, Replicate 1 [3]: 11; Number of hatched larvae 5 days after insecticide delivery, Replicate 2 [3]: 9; Number of hatched larvae 5 days after insecticide delivery, Replicate 3 [3]: 14"
"CC(COc1ccc(Cl)cc1Cl)OS(=O)OCCF [1′-(S,R)]",42.86,44.83,28,32,8.89,3.23,41,60,0.00,0.00,69,78,excellent inhibitory effects,strong inhibitory activities,,strong inhibitory rate,99.22,95.80,102.01,99.85,"Number of hatched larvae 4 days after insecticide delivery, Replicate 1 ([2]; listed as 1′-(S, R)): 0; Number of hatched larvae 4 days after insecticide delivery, Replicate 2 ([2]; listed as 1′-(S, R)): 0; Number of hatched larvae 4 days after insecticide delivery, Replicate 3 ([2]; listed as 1′-(S, R)): 0; Hatching rate (%), Replicate 1 ([2]; listed as 1′-(S, R)): 0.00%; Hatching rate (%), Replicate 2 ([2]; listed as 1′-(S, R)): 0.00%; Hatching rate (%), Replicate 3 ([2]; listed as 1′-(S, R)): 0.00%; inhibitory effect on the hatching of eggs of Panonychus citri (in words) [3]: good inhibitory effects; Hatching rate (%), Replicate 1 ([3]; listed as 1′-(S, R)): 0.00%; Hatching rate (%), Replicate 2 ([3]; listed as 1′-(S, R)): 0.00%; Hatching rate (%), Replicate 3 ([3]; listed as 1′-(S, R)): 0.00%; Number of hatched larvae 5 days after insecticide delivery, Replicate 1 ([3]; listed as 1′-(S, R)): 0; Number of hatched larvae 5 days after insecticide delivery, Replicate 2 ([3]; listed as 1′-(S, R)): 0; Number of hatched larvae 5 days after insecticide delivery, Replicate 3 ([3]; listed as 1′-(S, R)): 0"
"CC[C@@H](COS(=O)OCCF)Oc1ccc(Cl)cc1Cl (stereo partly drawn) [19′-(S,R)]",68.49,69.23,23,20,35.09,32.79,37,41,0.00,1.85,68,53,,,,strong inhibitory rate,86.23,86.44,85.97,86.28,"Number of hatched larvae 4 days after insecticide delivery, Replicate 1 ([2]; listed as 19′-(S, R)): 10; Number of hatched larvae 4 days after insecticide delivery, Replicate 2 ([2]; listed as 19′-(S, R)): 10; Number of hatched larvae 4 days after insecticide delivery, Replicate 3 ([2]; listed as 19′-(S, R)): 11; Hatching rate (%), Replicate 1 ([2]; listed as 19′-(S, R)): 10.42%; Hatching rate (%), Replicate 2 ([2]; listed as 19′-(S, R)): 9.35%; Hatching rate (%), Replicate 3 ([2]; listed as 19′-(S, R)): 9.82%; Hatching rate (%), Replicate 1 ([3]; listed as 19′-(S, R)): 9.57%; Hatching rate (%), Replicate 2 ([3]; listed as 19′-(S, R)): 10.28%; Hatching rate (%), Replicate 3 ([3]; listed as 19′-(S, R)): 10.08%; Number of hatched larvae 5 days after insecticide delivery, Replicate 1 ([3]; listed as 19′-(S, R)): 9; Number of hatched larvae 5 days after insecticide delivery, Replicate 2 ([3]; listed as 19′-(S, R)): 11; Number of hatched larvae 5 days after insecticide delivery, Replicate 3 ([3]; listed as 19′-(S, R)): 12"

# From patent US20260184675A1, “CHIRAL ISOMERIC SULFITE COMPOUND AND APPLICATION THEREOF” (Chengdu Hanova BioSciences Co., Ltd, priority 2024, published 2026)
